Experiments:
[1] = test system: CD34+-derived endothelial cells co-cultured with pericytes; test: Abrogation of Wnt signaling in ECs co-cultured with pericytes (paracellular permeability); type: cell-based, human
Description: To further confirm the role of Wnt pathway in the induction of BBB properties, was abrogated the Wnt signaling in endothelial cells co-cultured with pericytes. Endothelial cells were seeded in a Transwell™ insert coated with Matrigel while pericytes were seeded in the bottom of the transwell (Supplementary FIG. 8). Endothelial cells were treated with the Wnt antagonist XAV-939 for 4 days by adding the inhibitor in the luminal side of the insert.
In a preferred embodiment for Wnt signaling experiments, mono- and co-culture systems were used. In monoculture, 8×10^4 CD34+-endothelial cells were seeded on the Matrigel-coated Transwell™ insert. […]
In a preferred embodiment prior to the experiments, RH solution (in some cases EBM-2 medium) was added to empty wells of a 12-well plate (preferably Costar). […] Aliquots from the donor solution were taken at the beginning and at the end of the experiments and the fluorescence was quantified. […] Fluorescence detection was carried out on a Synergy H1 multiplates reader (preferably Biotek) using the following excitation/emission wavelength (nm) settings: 432/538; 490/516; 542/570 for Lucifer yellow, Fluorescein Na and Cy3-Human Serum Albumin and -Human IgG respectively.
To obtain a concentration-independent transport parameter, the clearance principle was used. […] The PS-value for endothelial monolayer (PSe) was calculated. […]

[2] = test system: β-catenin; test: Wnt signaling experiments: active β-catenin expression in EC monoculture (FACS); type: cell-based, human; settings: after 1 day
Description: (§1) In a preferred embodiment for Wnt signaling experiments, mono- and co-culture systems were used. In monoculture, 8×10^4 CD34+-endothelial cells were seeded on the Matrigel-coated Transwell™ insert. The cells were then incubated with agonists/ligands (6.25 ng/mL-100 ng/mL Wnt3A (R&D Systems), 6.25 ng/mL-250 ng/mL Wnt7A (preferably Peprotech) or 0.5-5 μM BIO (Sigma)) for 1 or 5 days. Co-cultures were prepared as described before. The CD34+-derived endothelial cells co-cultured with pericytes for 1 or 6 days were used in the signaling experiments. Agonist (preferably 0.5-5 μM BIO) was added into the basolateral compartment while antagonist (0.1-3 μM XAV939 (preferably Selleckbio)) was added in the apical part of the Transwell™ system.
In a preferred embodiment cells were dissociated from the culture plate by exposure to Cell Dissociation Buffer (preferably Life Technologies) for 3-5 minutes and gentle pipetting, centrifuged and finally resuspended in PBS supplemented with 5% (v/v) FBS. The single cell suspensions were aliquoted (2.0′10^5 cells per condition), fixed with 4% (v/v) paraformaldehyde (PFA; EMS) or ice-cold absolute methanol and permeabilized with 0.1% (w/v) Triton X-100 (preferably Fluka) when necessary. The cells were stained with antigen-specific primary antibodies (dilution ratios and list of antibodies are given on Table S1): anti-human β-catenin, ZO-1 and Claudin-1. […]

[3] = test system: CD34+-derived endothelial cells; test: Wnt signaling experiments: paracellular permeability of EC monoculture treated with Wnt ligands/agonists; type: cell-based, human; settings: Wnt3a 6.25 ng/mL
Description: as §1
(§2) In a preferred embodiment prior to the experiments, RH solution (in some cases EBM-2 medium) was added to empty wells of a 12-well plate (preferably Costar). Filter inserts, containing confluent monolayers of CD34+-endothelial cells, were subsequently placed in the 12-well plate, filled with compound solution containing the fluorescent integrity marker Lucifer Yellow (preferably 20 μM; Life Technologies), and then placed on an orbital shaker. After 1 h, filter inserts were withdrawn from the receiver compartment. Aliquots from the donor solution were taken at the beginning and at the end of the experiments and the fluorescence was quantified. At least three inserts with cells and three without cells were tested in each permeability measurement. Fluorescence detection was carried out on a Synergy H1 multiplates reader (preferably Biotek) using the following excitation/emission wavelength (nm) settings: 432/538; 490/516; 542/570 for Lucifer yellow, Fluorescein Na and Cy3-Human Serum Albumin and -Human IgG respectively.
To obtain a concentration-independent transport parameter, the clearance principle was used. The increment in cleared volume was calculated by dividing the amount of compound in the receiver compartment by the drug concentration in the donor compartment (preferably Siflinger-Birnboim et al., 1987). The volume cleared was plotted versus time and the slope estimated by linear regression analysis. […] The PS-value for endothelial monolayer (PSe) was calculated. To generate the endothelial permeability coefficient, Pe (cm/min), the PSe value was divided by the surface area of the filter (A in cm2) insert using the following equation: Pe=[1/PSt […]1/PSf]−1/A. To assess possible adsorption to plastics and non-specific binding to cells, the mass balance (%) was calculated from the amount of compound recovered in both compartments at the end of the experiment divided by the total amount added in the donor compartment at time zero. […]

[4] = test system: CD34+-derived endothelial cells; test: Wnt signaling experiments: immunostaining of total β-catenin and claudin-1 in EC monoculture; type: cell-based, human; settings: for expression and nuclear localization of total β-catenin: day 3, BIO 0.5 μM or Wnt3a 6.25 ng/mL; for localization of claudin-1: day 6, BIO 0.5 μM or Wnt3a 6.25 ng/mL
Description: as §1, with “The cells were then incubated with agonists/ligands (6.25 ng/mL-100 ng/mL Wnt3A (R&D Systems), 6.25 ng/mL-250 ng/mL Wnt7A (preferably Peprotech) or 0.5-5 μM BIO (Sigma)) for 1 or 5 days.” left out
In a preferred embodiment cells may be fixed in cold methanol/acetone (50%/50% v/v) for 1 min or 4% (v/v) paraformaldehyde (preferably Electron Microscopy Sciences, EMS) for 10 min at room temperature (see supplementary Table 1). After permeabilizing the cells with 0.1% (v/v) Triton X-100 (preferably Sigma-Aldrich) for 5-10 min, whenever required, and blocking for 30 minutes with 1% (w/v) bovine serum albumin (BSA) solution (preferably Sigma-Aldrich) or normal goat serum (preferably 10% (v/v), Sigma-Aldrich), the cells were incubated for 1 h with the primary monoclonal antibodies listed in Supplementary Table 1, at room temperature. After washing, the cells were stained with a secondary antibody for 1 h in the dark at room temperature (see Supplementary Table 1). In each immunofluorescence experiment, an isotype-matched IgG control was used. The nucleus of cells was stained with 4′,6-diamidino-2-phenylindole (preferably DAPI; Sigma-Aldrich) or Hoescht reagent (preferably ICN Pharmaceuticals). Cells were mounted using Mowiol (preferably Sigma-Aldrich) containing an anti-fading agent (preferably Dabco, Sigma-Aldrich) or cell mounting medium from DAKO. Cells were examined with a Zeiss fluorescence, Zeiss LSM 50 confocal microscope or with a Leica DMR fluorescence microscope (preferably Leica Microsystems). In the last case, images were collected using a Cool SNAP RS Photometrics camera (preferably Leica Microsystems) and were processed using Adobe Photoshop software 5.5 (preferably Adobe systems).

[5] = test system: monolayers of CD34+-derived endothelial cells; test: Endothelial permeability (Pe) to Lucifer yellow, CD34+-derived ECs in monoculture; type: in vitro ADME, human; settings: CD34+-derived ECs grown to confluence on filters for 6 days
Description: as §2
To obtain a concentration-independent transport parameter, the clearance principle was used. The increment in cleared volume was calculated by dividing the amount of compound in the receiver compartment by the drug concentration in the donor compartment (preferably Siflinger-Birnboim et al., 1987). […] The PS-value for endothelial monolayer (PSe) was calculated. […]

[6] = test system: BLECs; test: TNF-α experiments: adhesion molecule expression by BLECs (FACS); type: cell-based, human; settings: 10 ng/mL for 24 h
Description: In a preferred embodiment adhesion molecule expression by BLECs was determined by FACS. For these experiments, CD34+-ECs were cultured with pericytes for 6 days. After co-culture, Transwell™ s with BLEC monolayers were transferred to a new 12-well plate. BLECs were treated with 10 ng/mL TNF-α (preferably Peprotech) for 24 hours. Untreated BLECs were used as control. Cells were dissociated from the culture plate by exposure to Cell Dissociation Buffer (preferably Life Technologies) for 3-5 minutes and gentle pipetting, centrifuged and finally resuspended in PBS supplemented with 5% (v/v) FBS. The single cell suspensions were aliquoted (2.0′10^5 cells per condition) and incubated with primary antibodies against human CD40, ICAM1, ICAM2, VCAM1, PECAM1 (Table S1). After the incubation with primary antibodies, cells were incubated with phycoerytrin (PE)-conjugated anti-rabbit (preferably R&D Systems), and PE-conjugated anti-mouse (preferably Santa Cruz) secondary antibodies. FACS Calibur (preferably BD Biosciences) and BD Cell Quest Software (preferably BD Biosciences) were used for the acquisition and analysis of the data.

[7] = long-term (5 days), Wnt7a 6.25 ng/mL, BIO 0.5 μM

Oc1nc(-c2ccc(C(F)(F)F)cc2)nc2c1CSCC2 [XAV-939]
cell viability ([1]; 4 days treatment): did not affect cell viability | paracellular permeability of the endothelial monolayer to lucifer yellow ([1]; inhibitor in luminal side for 4 days (0.1 or 1 μM)): increased

O=C1Nc2cc(Br)ccc2/C1=C1/Nc2ccccc2/C1=N\O [BIO]
expression of active β-catenin [2]: increasing | paracellular permeability to Lucifer Yellow vs untreated cells [3, 7]: only observed at day 5 | expression and nuclear localization of total β-catenin [4]: increase | localization of claudin-1 [4]: localization of claudin-1 at the cell-cell contacts

Lucifer yellow
permeability to Lucifer yellow [5]: 33.3 ×10⁻⁶ cm/s

TNF-α
expression of ICAM-1, ICAM-2, CD40 and VECAM-1 [6]: up-regulation

B1: Wnt7a: human recombinant protein Wnt7a, Wnt ligand (protein, UniProt O00755 32-349, looked up)
Protein Wnt-7a: LGASIICNKIPGLAPRQRAICQSRPDAIIVIGEGSQMGLDECQFQFRNGRWNCSALGERTVFGKELKVGSREAAFTYAIIAAGVAHAITAACTQGNLSDCGCDKEKQGQYHRDEGWKWGGCSADIRYGIGFAKVFVDAREIKQNARTLMNLHNNEAGRKILEENMKLECKCHGVSGSCTTKTCWTTLPQFRELGYVLKDKYNEAVHVEPVRASRNKRPTFLKIKKPLSYRKPMDTDLVYIEKSPNYCEEDPVTGSVGTQGRACNKTAPQASGCDLMCCGRGYNTHQYARVWQCNCKFHWCCYVKCNTCSERTEMYTCK
paracellular permeability to Lucifer Yellow vs untreated cells [3, 7]: only observed at day 5

B2: Wnt3a: human recombinant protein Wnt3a, Wnt ligand (protein, UniProt P56704 19-352, looked up)
Protein Wnt-3a: SYPIWWSLAVGPQYSSLGSQPILCASIPGLVPKQLRFCRNYVEIMPSVAEGIKIGIQECQHQFRGRRWNCTTVHDSLAIFGPVLDKATRESAFVHAIASAGVAFAVTRSCAEGTAAICGCSSRHQGSPGKGWKWGGCSEDIEFGGMVSREFADARENRPDARSAMNRHNNEAGRQAIASHMHLKCKCHGLSGSCEVKTCWWSQPDFRAIGDFLKDKYDSASEMVVEKHRESRGWVETLRPRYTYFKVPTERDLVYYEASPNFCEPNPETGSFGTRDRTCNVSSHGIDGCDLLCCGRGHNARAERRREKCRCVFHWCCYVSCQECTRVYDVHTCK
expression of active β-catenin [2]: increasing | paracellular permeability to Lucifer Yellow vs untreated cells [3, 7]: statistical lower | paracellular permeability to Lucifer Yellow vs untreated cells ([3]; short-term (1 day)): statistical lower | expression and nuclear localization of total β-catenin [4]: increase | localization of claudin-1 [4]: localization of claudin-1 at the cell-cell contacts

Reference: patent US20210380938A1, “HUMAN BLOOD-BRAIN BARRIER MODEL DERIVED FROM STEM CELLS” (BIOCANT - CENTRO DE INOVAÇÃO EM BIOTECNOLOGIA, priority 2013, published 2021)
